Structures are written as SMILES.

One test concerns Hep3B cells (hepatocellular carcinoma cell line). Kind of test: In vitro MTS cell viability assay (NCI-60 methodology), Hep3B. The format is cell-based. Particulars: Homo sapiens, 48 h, Table 1, MTS, 2 days drug incubation, 50% reduction vs time zero, read-out: Hep3B LC50. An outline of the steps:
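Following NCI-60 method, MTS viability of Hep3B measured 24 h after plating (time zero) and after a further 2-day exposure to five concentrations (2-fold series). LC50 defined where [(Ti−Tz)/Tz]×100 = −50.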
For orientation: Tetrazolium assays rely on reduction of a dye to a coloured formazan, in cell work by metabolically active cells.
Usually LC50 stands for the concentration lethal to half of the exposed cells or organisms. As for `CCC(C)(C)c1ccc(-c2nc(NC(=O)c3ccc([N+](=O)[O-])s3)c3cnn(C)c3n2)cc1` [Compound 1-9, N-(1-methyl-6-(4-(tert-pentyl)phenyl)-1H-pyrazolo[3,4-d]pyrimidin-4-yl)-5-nitrothiophene-2-carboxamide], the median lethal concentration (LC50) was determined as 1500 nM.

The same test, now with this note: Homo sapiens, 48 h, Table 4, MTS, 2 days drug incubation, 50% reduction vs time zero, read-out: Hep3B LC50.
`Cc1csc2c(NC(=O)c3ccc([N+](=O)[O-])s3)nc(-c3ccc(OC(F)(F)F)cc3)nc12` [Compound 4-4, N-(7-methyl-2-(4-(trifluoromethoxy)phenyl)thieno[3,2-d]pyrimidin-4-yl)-5-nitrothiophene-2-carboxamide]: the LC50 is 890 nM.

Staying with this test, now noted: Homo sapiens, 48 h, Table 5, MTS, 2 days drug incubation, 50% reduction vs time zero, read-out: Hep3B LC50.
On to `CN(C)c1cccc(-c2nc(NC(=O)c3ccc([N+](=O)[O-])s3)c3cnn(-c4ccccc4)c3n2)c1` [Compound 5-41, N-(6-(3-(dimethylamino)phenyl)-1-phenyl-1H-pyrazolo[3,4-d]pyrimidin-4-yl)-5-nitrothiophene-2-carboxamide], for which the LC50 was 450 nM.
In the case of `O=C(Nc1nc(N2CC[C@H](O)C2)nc2c1cnn2-c1ccccc1)c1ccc([N+](=O)[O-])s1` [Compound 5-4, (S)—N-(6-(3-hydroxypyrrolidin-1-yl)-1-phenyl-1H-pyrazolo[3,4-d]pyrimidin-4-yl)-5-nitrothiophene-2-carboxamide], the LC50 turned out to be 1010 nM.
For `O=C(Nc1nc(-c2ccc(C(F)(F)F)c(F)c2)nc2c1cnn2-c1ccccc1)c1ccc([N+](=O)[O-])s1` [Compound 5-52, N-(6-(3-fluoro-4-(trifluoromethyl)phenyl)-1-phenyl-1H-pyrazolo[3,4-d]pyrimidin-4-yl)-5-nitrothiophene-2-carboxamide], the median lethal concentration (LC50) is over 1250 nM.
Turning to `O=C(Nc1nc(N2CCCC2)nc2c1cnn2-c1ccccc1)c1ccc([N+](=O)[O-])s1` [Compound 5-3, 5-nitro-N-(1-phenyl-6-(pyrrolidin-1-yl)-1H-pyrazolo[3,4-d]pyrimidin-4-yl)thiophene-2-carboxamide], the 50% lethal concentration (LC50) amounted to 4910 nM.

Still in this test, the particulars now being: Homo sapiens, 48 h, Table 6, MTS, 2 days drug incubation, 50% reduction vs time zero, read-out: Hep3B LC50.
As to `Cc1ccc(-n2ncc3c(NC(=O)c4ccc([N+](=O)[O-])s4)nc(-c4ccc(C(F)(F)F)cc4)nc32)cc1` [Compound 6-8, 5-nitro-N-(1-(p-tolyl)-6-(4-(trifluoromethyl)phenyl)-1H-pyrazolo[3,4-d]pyrimidin-4-yl)thiophene-2-carboxamide], the LC50 came out at 350 nM.
In the case of `COCCOc1ccc(-c2nc(NC(=O)c3ccc([N+](=O)[O-])s3)c3cnn(-c4ccc(Cl)cc4)c3n2)cn1` [Compound 6-51, N-(1-(4-chlorophenyl)-6-(6-(2-methoxyethoxy)pyridin-3-yl)-1H-pyrazolo[3,4-d]pyrimidin-4-yl)-5-nitrothiophene-2-carboxamide], the LC50 is 50 nM.
`Cc1ccn(-c2nc(NC(=O)c3ccc([N+](=O)[O-])s3)c3cnn(-c4ccc(C(C)(C)C)cc4)c3n2)n1` [Compound 6-77, N-(1-(4-(tert-butyl)phenyl)-6-(3-methyl-1H-pyrazol-1-yl)-1H-pyrazolo[3,4-d]pyrimidin-4-yl)-5-nitrothiophene-2-carboxamide]: the LC50 amounted to 250 nM.
In the case of `O=C(Nc1nc(-c2ccc3c(c2)OCO3)nc2c1cnn2-c1ccc(F)cc1)c1ccc([N+](=O)[O-])s1` [Compound 6-124, N-(6-(benzo[d][1,3]dioxol-5-yl)-1-(4-fluorophenyl)-1H-pyrazolo[3,4-d]pyrimidin-4-yl)-5-nitrothiophene-2-carboxamide], the LC50 was determined as 550 nM.
On to `COc1ccc(-c2nc(NC(=O)c3ccc([N+](=O)[O-])s3)c3cnn(-c4ccc(C(C)(C)C)cc4)c3n2)cn1` [Compound 6-82, N-(1-(4-(tert-butyl)phenyl)-6-(6-methoxypyridin-3-yl)-1H-pyrazolo[3,4-d]pyrimidin-4-yl)-5-nitrothiophene-2-carboxamide], for which the LC50 came to 380 nM.
On the same count and under the same terms, to `COc1ccc(-n2ncc3c(NC(=O)c4ccc([N+](=O)[O-])s4)nc(-c4ccc(Cl)cc4)nc32)cc1` [Compound 6-20, N-(6-(4-chlorophenyl)-1-(4-methoxyphenyl)-1H-pyrazolo[3,4-d]pyrimidin-4-yl)-5-nitrothiophene-2-carboxamide] belongs 320 nM; to `O=C(Nc1nc(-c2ccc(C(F)(F)F)cc2)nc2c1cnn2-c1ccc(OC(F)(F)F)cc1)c1ccc([N+](=O)[O-])s1` [Compound 6-88, 5-nitro-N-(1-(4-(trifluoromethoxy)phenyl)-6-(4-(trifluormethyl)phenyl)-1H-pyrazolo[3,4-d]pyrimidin-4-yl)thiophene-2-carboxamide], 420 nM.
`CC(C)(C)c1ccc(-n2ncc3c(NC(=O)c4ccc([N+](=O)[O-])s4)nc(OCC(F)(F)C(F)F)nc32)cc1` [Compound 6-59, N-(1-(4-(tert-butyl)phenyl)-6-(2,2,3,3-tetrafluoropropoxy)-1H-pyrazolo[3,4-d]pyrimidin-4-yl)-5-nitrothiophene-2-carboxamide]: the median lethal concentration (LC50) is 500 nM.
Turning to `COc1ccc(-n2ncc3c(NC(=O)c4ccc([N+](=O)[O-])s4)nc(C4CCC(C)(C)CC4)nc32)cc1` [Compound 6-30, N-(6-(4,4-dimethylcyclohexyl)-1-(4-methoxyphenyl)-1H-pyrazolo[3,4-d]pyrimidin-4-yl)-5-nitrothiophene-2-carboxamide], the LC50 worked out at 1320 nM.
For the compound `CCOCCOCCOc1ccc(-c2nc(NC(=O)c3ccc([N+](=O)[O-])s3)c3cnn(-c4ccc(C(C)(C)C)cc4)c3n2)cn1` [Compound 6-83, N-(1-(4-(ter-butyl)phenyl)-6-(6-(2-(2-ethoxyethoxy)ethoxy)pyridin-3-yl)-1H-pyrazolo[3,4-d]pyrimidin-4-yl)-5-nitrothiophene-2-carboxamide], the 50% lethal concentration (LC50) turned out to be 410 nM.
For the compound `O=C(Nc1nc(-n2ccc(C(F)(F)F)n2)nc2c1cnn2-c1ccc(F)cc1)c1ccc([N+](=O)[O-])s1` [Compound 6-109, N-(1-(4-fluorophenyl)-6-(3-(trifluoromethyl)-1H-pyrazol-1-yl)-1H-pyrazolo[3,4-d]pyrimidin-4-yl)-5-nitrothiophene-2-carboxamide], the LC50 was 380 nM.

Still in this test, the particulars now being: Homo sapiens, 48 h, Table 7, MTS, 2 days drug incubation, 50% reduction vs time zero, read-out: Hep3B LC50.
Take `O=C(Nc1nc(-c2ccc(C(F)(F)F)cc2)nc2c1cnn2-c1ccc(C(F)(F)F)cn1)c1ccc([N+](=O)[O-])s1` [Compound 7-4, 5-nitro-N-(6-(4-(trifluoromethyl)phenyl)-1-(5-(trifluoromethyl)pyridin-2-yl)-1H-pyrazolo[3,4-d]pyrimidin-4-yl)thiophene-2-carboxamide]: the LC50 was 220 nM.

The test is the same for the next values; noted with them: Homo sapiens, 48 h, Table 8, MTS, 2 days drug incubation, 50% reduction vs time zero, read-out: Hep3B LC50.
Turning to `CC(C)N1CC[C@H](n2ncc3c(NC(=O)c4ccc([N+](=O)[O-])s4)nc(-c4ccc(F)nc4)nc32)C1` [Compound 8-1, (S)—N-(6-(6-fluoropyridin-3-yl)-1-(1-isopropylpyrrolidin-3-yl)-1H-pyrazolo[3,4-d]pyrimidin-4-yl)-5-nitrothiophene-2-carboxamide], the LC50 was over 3000 nM.

The same test, now with this note: Homo sapiens, 48 h, Table 9, MTS, 2 days drug incubation, 50% reduction vs time zero, read-out: Hep3B LC50.
Regarding `CCOCCOCCOC(=O)N1CCC(n2ncc3c(NC(=O)c4ccc([N+](=O)[O-])s4)nc(-c4ccc(Cl)cc4)nc32)CC1` [Compound 9-11, 2-(2-ethoxyethoxy)ethyl 4-(6-(4-chlorophenyl)-4-(5-nitrothiophene-2-carboxamido)-1H-pyrazolo[3,4-d]pyrimidin-1-yl)piperidine-1-carboxylate], the LC50 was over 1250 nM.
Same read-out and setting: for `CCCC(=O)N1CCC(n2ncc3c(NC(=O)c4ccc([N+](=O)[O-])s4)nc(-c4ccc(F)nc4)nc32)CC1` [Compound 9-7, N-(1-(1-butyrylpiperidin-4-yl)-6-(6-fluoropyridin-3-yl)-1H-pyrazolo[3,4-d]pyrimidin-4-yl)-5-nitrothiophene-2-carboxamide] the value was over 5000 nM; for `CC(C)N1CCC(n2ncc3c(NC(=O)c4ccc([N+](=O)[O-])s4)nc(-c4ccc(F)nc4)nc32)CC1` [Compound 9-1], 1250 nM.

Staying with this test, now noted: Homo sapiens, 48 h, Table 10, MTS, 2 days drug incubation, 50% reduction vs time zero, read-out: Hep3B LC50.
Regarding `O=C(Nc1nc(-c2cccc(F)c2)nc2c1cnn2C1CCCCC1)c1ccc([N+](=O)[O-])s1` [Compound 10-12, N-(1-cyclohexyl-6-(3-fluorophenyl)-1H-pyrazolo[3,4-d]pyrimidin-4-yl)-5-nitrothiophene-2-carboxamide], the median lethal concentration (LC50) amounted to 950 nM.
For `Cc1ccc(-c2nc(NC(=O)c3ccc([N+](=O)[O-])s3)c3cnn(C4CCCCC4)c3n2)s1` [Compound 10-7, N-(1-cyclohexyl-6-(5-methylthiophen-2-yl)-1H-pyrazolo[3,4-d]pyrimidin-4-yl)-5-nitrothiophene-2-carboxamide], the median lethal concentration (LC50) is 1530 nM.
As for `Cc1noc(C)c1-c1nc(NC(=O)c2ccc([N+](=O)[O-])s2)c2cnn(C3CCCCC3)c2n1` [Compound 10-9, N-(1-cyclohexyl-4-(3,5-dimethylisoxazol-4-yl)-1H-pyrazolo[3,4,d]pyrimidin-4-yl)-5-nitrothiophene-2-carboxamide], the LC50 is 1070 nM.
Regarding `O=C(Nc1nc(-c2cccc(Cl)c2)nc2c1cnn2C1CCCCC1)c1ccc([N+](=O)[O-])s1` [Compound 10-16, N-(6-(3-chlorophenyl)-1-cyclohexyl-1H-pyrazolo[3,4-d]pyrimidin-4-yl)-5-nitrothiophene-2-carboxamide], the LC50 was 610 nM.
Consider `COc1cncc(-c2nc(NC(=O)c3ccc([N+](=O)[O-])s3)c3cnn(C4CCCCC4)c3n2)c1` [Compound 10-22], for which the LC50 amounted to 1160 nM.
`CC1(C)CCC(n2ncc3c(NC(=O)c4ccc([N+](=O)[O-])s4)nc(-c4ccc(Cl)cc4F)nc32)CC1` [Compound 10-65, N-(6-(4-chloro-2-fluorophenyl)-1-(4,4-dimethylcyclohexyl)-1H-pyrazolo[3,4-d]pyrimidin-4-yl)-5-nitrothiophene-2-carboxamide]: the 50% lethal concentration (LC50) is 580 nM.

Values taken from patent publication US20240150356A1, “Pyrimidine amide compounds and use thereof” (ALPHALA CO., LTD., priority 2019, published 2024).
